The record followed here is patent US12558342B2, “2-[2-({12,12-dimethyl-4-oxo-6-phenyl-3,11-dioxatricyclo[8.4.0.0,2,7]tetradeca-1,5,7,9-tetraen-8-yl}oxy)acetamido]benzamide and derivatives as inhibitor of clock:bmal1 interaction for the treatment of circadian rhythm diseases and disorders” (KOC UNIVERSITESI, priority 2019, dated 2026).

Experiment [1] concerns the target T1, CLOCK (Homo sapiens, UniProt O15516).
T1 sequence (O15516 1-846): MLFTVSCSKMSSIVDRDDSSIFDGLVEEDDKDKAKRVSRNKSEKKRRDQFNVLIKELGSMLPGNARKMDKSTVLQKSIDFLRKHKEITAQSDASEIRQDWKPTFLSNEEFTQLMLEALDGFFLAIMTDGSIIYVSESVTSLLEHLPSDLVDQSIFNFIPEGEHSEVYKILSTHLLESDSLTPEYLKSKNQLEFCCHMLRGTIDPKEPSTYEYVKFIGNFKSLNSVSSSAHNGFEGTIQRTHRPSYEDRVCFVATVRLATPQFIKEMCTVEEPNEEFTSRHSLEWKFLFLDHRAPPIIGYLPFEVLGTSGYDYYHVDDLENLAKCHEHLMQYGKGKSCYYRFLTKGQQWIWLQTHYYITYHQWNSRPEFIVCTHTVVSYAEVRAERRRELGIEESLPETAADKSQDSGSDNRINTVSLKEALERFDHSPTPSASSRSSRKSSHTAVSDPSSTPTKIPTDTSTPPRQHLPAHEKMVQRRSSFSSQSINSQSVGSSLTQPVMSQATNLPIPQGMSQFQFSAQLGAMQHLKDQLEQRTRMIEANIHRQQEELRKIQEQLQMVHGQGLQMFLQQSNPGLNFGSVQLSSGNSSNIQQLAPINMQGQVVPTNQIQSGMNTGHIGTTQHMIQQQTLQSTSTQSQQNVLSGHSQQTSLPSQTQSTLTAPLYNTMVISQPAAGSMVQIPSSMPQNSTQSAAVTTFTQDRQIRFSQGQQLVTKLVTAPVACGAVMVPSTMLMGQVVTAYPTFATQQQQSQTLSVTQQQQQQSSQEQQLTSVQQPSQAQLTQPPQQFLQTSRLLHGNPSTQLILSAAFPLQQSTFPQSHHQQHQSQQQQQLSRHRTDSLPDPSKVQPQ
The experiment can be described thus: Cytosol-nuclear fractionation of U2OS cells, CLOCK. As to conditions: 20 μM, two days. Type of experiment: cell-based. How it is done:
U2 OS cells treated with 20 μM CLK8 and 0.5% DMSO were used for fractionation analysis. The 4×10^5 was suspended in 500 ul cytosolic lysis buffer (10 mM HEPES pH 7,9, 10 mM KCl, 0.1 mM EDTA, 0.05% NP40 with protease inhibitors) and incubated on ice for 10 minutes. The lysate was centrifuged for 3 minutes at 3000 rpm at 4° C. The resulting supernatant was centrifuged one more time and supernatant collected as cytosolic fraction. On the other hand, the resulting pellet from lysate centrifugation was suspended in nuclear lysis buffer (20 mM HEPES pH 7.9, 0.4 M NaCl, 1 mM EDTA, 10% glycerol with protease inhibitors) and sonicated 2 times 10 seconds with 60% power. After centrifuge at 15 000 g for 5 minutes at 4° C., supernatant was collected as nuclear fraction. Collected fractions were used for Western Blot analysis. Fractionation efficiency was checked with Western Blot by using tubulin (Sigma T9026) as cytosolic marker and Histone-H3 (abcam ab1791) as nuclear marker.

Another experiment concerns core clock components. Briefly: Time dependent protein and mRNA analysis in synchronized U2OS cells. Type of experiment: cell-based, human. The method, then:
FIGS. 5A-5K are an illustration of FORMULA I altered CLOCK protein level in time dependent manner. Confluent U2OS cells were synchronized by 2-hours treatment with dexamethasone (0.1 μM) and medium replaced with fresh medium containing CLK8 or DMSO. Cells were harvested at indicated time points. FIGS. 5A-5D show a time dependent analysis of core clock proteins by Western blot. (mean±SEM, n=3). FIGS. 5E-5K show a qPCR analysis of the core clock genes in a time dependent manner. (Data represent the mean±SEM, n=3 ***: p<0.001 **: p<0.005, *: p<0.05 versus DMSO control by one-way ANOVA Tukey).
Unsynchronized Bmal1::dluc U2OS cells were seeded on 6-well dishes. Confluent cells were treated with an appropriate amount of CLK8 for 48 hours. Control cells were treated with 0.5% vehicle (DMSO). After harvesting the cells, mRNAs were isolated (RNeasy, QIAGEN) and converted to cDNA (Thermo Scientific). Finally, cDNAs were subjected to SYBR Green-based RT-qPCR assay. PRLP0 was used as an internal control. For western blot analysis RIPA buffer was used to prepare whole cell lysates. The amount of protein for each sample was normalized to the β-ACTIN amount detected by β-Actin antibody (Cell Signalling).

Experiment [2] has as its target T1, CLOCK. The experiment can be described thus: LC-MS/MS of pull-down precipitates, CLOCK. Type of experiment: binding. Details: expressed in transfected cells; host or cells: HEK293T. The method, then:
HEK293T cells were transiently transfected with tag-free hsClock and mBmal1. After 48 hours of transfection, cells were harvested and whole cell lysate was prepared with ice-cold lysis buffer (50 mM Tris-HCl pH 7.4, 2 mM EDTA, 1 mM MgCl2, 0.2% NP-40, 1 mM sodium orthovanadate, 1 mM sodium fluoride and protease inhibitor cocktail) followed by centrifugation at 7000×g at 4° C. for 10 minutes. Lysate was diluted with ice-cold 2× binding buffer (100 mM Tris-HCl pH 7.4, 300 mM NaCl, 0.2% NP-40, 2 mM sodium orthovanadate, 2 mM sodium fluoride, and protease inhibitor cocktail) 27. The lysate was divided into three fractions to be treated with either DMSO, or 20 μM of bitoinylated-CLK8 (bait) with or without 200 μM CLK8 (competitor). […]
The next step was to check for off-targets of CLK8. […] Since the amount of precipitated endogenous CLOCK was insufficient to be detected in LC-MS/MS, whole cell lysate of HEK 293T cells overexpressing CLOCK and BMAL1 were used for LC-MS/MS. We determined proteins that potentially bind to CLK8 by utilizing a minimum threshold for peptide spectrum matches and coverage equal to those of the main target, CLOCK. We also excluded proteins that have been detected in negative controls of the CRAPome database (32), assuming them as abundant sticky proteins. […] BMAL1 was detected in lower amounts when a competitor was present. […]

In the case of `CC1(C)CCc2c(cc(OCC(=O)Nc3ccccc3C(N)=O)c3c(-c4ccccc4)cc(=O)oc23)O1` [CLK8, 2-[2-({12,12-dimethyl-4-oxo-6-phenyl-3,11-dioxatricyclo [8.4.0.0,2,7]tetradeca-1,5,7,9-tetraen-8-yl}oxy)acetamido] benzamide], the “level of CLOCK in the nucleus” value at CLOCK [1] is given as “reduced”. Moreover, in the experiment with core clock components, the “CRY1 and PER2 protein abundance” value is listed as “comparable protein abundance”; the “CRY1 and PER2 transcript level” value is “significantly reduced”; the “protein levels of CLOCK and BMAL1” value is “reduced”; the “transcriptional level of Clock” value is given as “increased”. In addition, the “oscillatory amplitude of clock gene expression” value with core clock components (collected every 6 h) was “generally lower”. Also, on CLOCK [2] (Competitor 0 μM), the “Peptide spectrum matches, CLOCK” value is reported as 42. Further, the “Peptide spectrum matches, CLOCK” value on CLOCK [2] (Competitor 200 μM) is reported as “not detected”.
